Reference: ChEMBL document CHEMBL1201862, “PubChem BioAssay data set” (2004)
Activity calls are given as the source filed them.

Key:
Protein RecA = target: T1, Protein RecA (Mycobacterium tuberculosis, UniProt P9WHJ3); assay: Fluorescence Cell-Free Homogeneous Dose Retest to Identify Inhibitors of RecA-Intein Splicing Activity. [Related pubchem assays (depositor defined):AID2097, AID2223, AID489010, AID492950]; assay type: functional
T1 sequence (P9WHJ3 whole entry): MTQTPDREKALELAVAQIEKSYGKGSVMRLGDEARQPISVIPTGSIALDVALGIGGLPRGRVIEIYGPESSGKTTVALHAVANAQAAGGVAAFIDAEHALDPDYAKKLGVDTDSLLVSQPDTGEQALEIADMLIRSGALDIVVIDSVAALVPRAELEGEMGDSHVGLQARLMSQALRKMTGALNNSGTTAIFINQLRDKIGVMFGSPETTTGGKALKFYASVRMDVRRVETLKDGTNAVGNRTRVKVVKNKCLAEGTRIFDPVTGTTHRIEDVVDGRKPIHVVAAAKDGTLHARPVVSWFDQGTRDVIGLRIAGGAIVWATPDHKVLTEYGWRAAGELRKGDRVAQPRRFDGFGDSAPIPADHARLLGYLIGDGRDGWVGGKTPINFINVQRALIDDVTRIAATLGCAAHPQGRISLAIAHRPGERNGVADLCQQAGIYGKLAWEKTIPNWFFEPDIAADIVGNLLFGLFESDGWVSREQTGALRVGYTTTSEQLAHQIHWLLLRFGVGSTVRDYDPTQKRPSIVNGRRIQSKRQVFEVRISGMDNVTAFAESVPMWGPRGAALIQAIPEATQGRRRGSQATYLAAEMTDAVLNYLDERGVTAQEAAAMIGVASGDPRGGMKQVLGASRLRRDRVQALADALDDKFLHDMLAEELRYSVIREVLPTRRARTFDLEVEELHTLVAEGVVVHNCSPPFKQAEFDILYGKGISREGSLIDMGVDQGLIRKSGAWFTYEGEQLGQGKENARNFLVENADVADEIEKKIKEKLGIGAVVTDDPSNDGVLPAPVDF

[1] = target: T2, Tyrosyl-DNA phosphodiesterase 2 (Homo sapiens, UniProt O95551); assay: potency against TDP2 phosphodiesterase activity – biochemical, epi absorbance, IC50, dose response (AID 743297)
T2 sequence (O95551 whole entry): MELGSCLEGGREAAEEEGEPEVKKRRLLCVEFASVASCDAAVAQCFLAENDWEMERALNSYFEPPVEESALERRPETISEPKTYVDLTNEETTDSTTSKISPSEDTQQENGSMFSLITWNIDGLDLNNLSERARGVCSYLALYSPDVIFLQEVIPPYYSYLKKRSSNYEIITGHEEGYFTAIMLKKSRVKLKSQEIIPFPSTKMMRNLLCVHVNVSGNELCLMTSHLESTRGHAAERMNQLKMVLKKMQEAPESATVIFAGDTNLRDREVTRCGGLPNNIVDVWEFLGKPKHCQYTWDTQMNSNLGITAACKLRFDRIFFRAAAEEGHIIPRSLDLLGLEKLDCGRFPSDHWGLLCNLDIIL

[2] = target: T3, RNA-binding protein pos-1 (Caenorhabditis elegans, UniProt G5EF15); assay: disruptors of C. elegans POS-1 RNA interaction – biochemical, fluorescence polarization, dose response (AID 1964);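 further: purified POS-1 fused to maltose binding protein made in E. coli; potency of compounds blocking POS-1 binding to fluorescent RNA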
T3 sequence (G5EF15 whole entry): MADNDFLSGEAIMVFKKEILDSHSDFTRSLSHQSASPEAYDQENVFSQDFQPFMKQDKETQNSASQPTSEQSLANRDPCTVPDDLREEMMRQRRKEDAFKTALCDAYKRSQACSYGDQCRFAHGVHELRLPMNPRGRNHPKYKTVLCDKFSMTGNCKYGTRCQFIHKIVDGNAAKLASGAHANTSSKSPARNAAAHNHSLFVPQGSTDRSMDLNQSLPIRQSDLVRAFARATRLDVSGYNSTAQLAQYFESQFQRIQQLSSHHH

[3] = target: T4, Zinc finger protein mex-5 (Caenorhabditis elegans, UniProt Q9XUB2); assay: potency of MEX-5 RNA-binding blockers – biochemical, C. elegans, fluorescence polarization, dose response (AID 1960)
T4 sequence (Q9XUB2 whole entry): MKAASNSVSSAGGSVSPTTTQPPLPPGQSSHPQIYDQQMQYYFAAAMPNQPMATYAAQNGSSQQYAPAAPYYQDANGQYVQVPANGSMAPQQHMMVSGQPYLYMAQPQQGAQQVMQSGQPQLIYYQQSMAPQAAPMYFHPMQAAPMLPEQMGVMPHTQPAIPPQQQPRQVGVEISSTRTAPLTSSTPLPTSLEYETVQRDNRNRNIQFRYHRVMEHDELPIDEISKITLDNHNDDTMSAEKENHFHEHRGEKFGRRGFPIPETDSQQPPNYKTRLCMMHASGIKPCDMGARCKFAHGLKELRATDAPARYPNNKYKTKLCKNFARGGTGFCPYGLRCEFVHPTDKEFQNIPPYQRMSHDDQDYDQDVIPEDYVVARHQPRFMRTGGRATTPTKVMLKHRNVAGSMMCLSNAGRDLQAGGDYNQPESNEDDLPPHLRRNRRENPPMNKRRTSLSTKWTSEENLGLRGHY

[4] = target: T5, Endoribonuclease toxin MazF (Escherichia coli K-12, UniProt P0AE70); assay: activation of MazEF endoribonuclease cleavage – biochemical, fluorescence, single-stranded RNA substrate, uHTS hits, dose response (AID 588481); assay type: functional
T5 sequence (P0AE70 whole entry): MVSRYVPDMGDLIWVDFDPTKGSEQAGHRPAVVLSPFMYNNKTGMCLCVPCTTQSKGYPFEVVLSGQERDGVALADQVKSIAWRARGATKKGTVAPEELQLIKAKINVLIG

Albumin = Albumin (Bos taurus, UniProt P02769); assay: Counterscreen for inhibitors of T-cell receptor (TCR)-CD3 interaction: Fluorescence-based biochemical high throughput dose response assay to identify inhibitors of T-cell receptor (TCR)-CD3 interaction using a TAMRA-labeled BSA probe.; assay type: functional
Albumin, sequence (P02769 whole entry): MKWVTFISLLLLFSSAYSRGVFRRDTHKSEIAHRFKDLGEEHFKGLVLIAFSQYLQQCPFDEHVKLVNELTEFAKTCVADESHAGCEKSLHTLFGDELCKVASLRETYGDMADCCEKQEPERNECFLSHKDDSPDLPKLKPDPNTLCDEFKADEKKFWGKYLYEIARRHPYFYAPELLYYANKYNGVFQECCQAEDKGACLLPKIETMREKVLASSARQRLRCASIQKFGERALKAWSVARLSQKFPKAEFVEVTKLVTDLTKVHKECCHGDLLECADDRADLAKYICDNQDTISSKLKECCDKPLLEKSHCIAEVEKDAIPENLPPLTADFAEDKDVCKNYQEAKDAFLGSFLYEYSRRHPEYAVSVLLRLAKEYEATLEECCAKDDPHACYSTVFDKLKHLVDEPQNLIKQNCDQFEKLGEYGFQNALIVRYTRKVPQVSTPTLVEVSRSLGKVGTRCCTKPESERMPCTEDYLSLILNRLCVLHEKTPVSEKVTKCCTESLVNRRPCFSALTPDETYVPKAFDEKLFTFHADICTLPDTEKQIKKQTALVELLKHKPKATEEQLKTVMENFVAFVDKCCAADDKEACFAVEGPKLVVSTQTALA

[5] = mitochondrial function rescue without frataxin homolog – Friedreich's ataxia, plus single-dose screen, dose response (AID 1465); assay type: functional;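 further: yeast depleted of Yfh1p frataxin homolog grown on glycerol needing respiration; WST-1 tetrazolium dye reduction as measure of cellular dehydrogenase metabolic activity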
[6] = target: T5, Endoribonuclease toxin MazF; assay: substrate-only fluorescence increase artefacts – biochemical, single-stranded RNase substrate, counter-screen for MazEF activator project, dose response (AID 588502); assay type: functional

SMILES: COC(=O)c1ccc(-c2ccc(C(c3c(C)[nH][nH]c3=O)c3c(C)[nH][nH]c3=O)o2)cc1
- EC50 (Protein RecA): 0.348 µM (active)
- IC50 [1]: 74.3 µM (inactive)

SMILES: Oc1ccc(/C=N/NC(=S)Nc2cccnc2)c(O)c1O
- EC50 [2]: 71.4 µM (active)
- EC50 [3]: 0.086 µM (active)
- EC50 [4]: > 99 µM (inactive)
- IC50 (Albumin): > 94.1 µM (inactive)
- EC50 [5]: > 100 µM (active)
- EC50 [6]: > 99 µM (inactive)
